Assay results published in patent US4689326A, “Process for controlling hyperlipidemia” (Research Corporation, priority 1985, dated 1987).

Test system: serum cholesterol
Assay: Hypolipidemic Activity of Compounds 1 and 10-33, Example 13: serum cholesterol
Assay type: in vivo, CF1 male mice
Settings: Mus musculus, 216 h; 20 mg/kg/day ip, day 9, ± SD; read-out: Serum Cholesterol as a function of control, 9 Day
Method: (§1) Compounds 1 and 10-33, identified below in Table 11, were suspended by homogenation in a 1% aqueous solution of carboxymethylcellulose (CMC) such that a 0.2 ml dosage supplied a concentration of 20 mg/kg of the active compounds. The suspending agent, the 1% aqueous solution of CMC, was utilized as a control, applied in the same quantity, 0.2 ml. CF1 male mice, maintained in groups of six, were fed Wayne Blox [trademark] laboratory animal show ad libitum with water. The mice, which each weighed approximately 25 g, were administered the drugs interperitoneally at approximately the same time. On days 9 and 16 approximately […] of blood was taken from each of the animals by tail bleeding. After centrifugation to obtain serum, 25 microliter samples were assayed for total cholesterol utilizing the method of Ness et al. Serum triglyicerides were assayed, using a commercially available BioDynamics/bmc triglyiceride kit, on blood collected on the 16th day. By comparison to standards the milligram percent of cholesterol and milligram per deciliter concentration of triglicerides were calculated. Treated values were expressed as a percent of the level of the control animals plus or minus the standard deviation. The "T" values were obtained using the Student's "t" test.

| Compound | response vs control in vivo at 20 mg/kg |
| --- | --- |
| O=c1c2ccccc2c2ccccc2c(=O)n1-c1ccccc1 [Compound 18, N-phenyldiphenimide] | 97 ± 8% |
| COc1ccccc1-n1c(=O)c2ccccc2c2ccccc2c1=O [Compound 19, N-(2-methoxy)-phenyldiphenimide] | 80 ± 8% |
| COc1cccc(-n2c(=O)c3ccccc3c3ccccc3c2=O)c1 [Compound 20, N-(3-methoxy)phenyldiphenimide] | 84 ± 7% |
| COc1ccc(-n2c(=O)c3ccccc3c3ccccc3c2=O)cc1 [Compound 21, N-(4-methoxy)-phenyldiphenimide] | 91 ± 7% |
| Cc1ccccc1-n1c(=O)c2ccccc2c2ccccc2c1=O [Compound 22, N-(2-methyl)-phenyldiphenimide] | 78 ± 7% |
| Cc1cccc(-n2c(=O)c3ccccc3c3ccccc3c2=O)c1 [Compound 23, N-(3-methyl)-phenyldiphenimide] | 78 ± 7% |
| Cc1ccc(-n2c(=O)c3ccccc3c3ccccc3c2=O)cc1 [Compound 24, N-(4-methyl)-phenyldiphenimide] | 57 ± 7% |
| CCc1ccccc1-n1c(=O)c2ccccc2c2ccccc2c1=O [Compound 25, N-(2-ethyl)phenyldiphenimide] | 82 ± 8% |
| CCc1cccc(-n2c(=O)c3ccccc3c3ccccc3c2=O)c1 [Compound 26, N-(3-ethyl)-phenyldiphenimide] | 95 ± 7% |
| CCc1ccc(-n2c(=O)c3ccccc3c3ccccc3c2=O)cc1 [Compound 27, N-(4-ethyl)-phenyldiphenimide] | 101 ± 8% |
| O=c1c2ccccc2c2ccccc2c(=O)n1-c1ccccc1Cl [Compound 28, N-(2-chloro)-phenyldiphenimide] | 67 ± 6% |
| O=c1c2ccccc2c2ccccc2c(=O)n1-c1cccc(Cl)c1 [Compound 29, N-(3-chloro)-phenyldiphenimide] | 81 ± 8% |
| O=c1c2ccccc2c2ccccc2c(=O)n1-c1ccc(Cl)cc1 [Compound 30, N-(4-chloro)phenyldiphenimide] | 74 ± 6% |
| CC(=O)c1ccccc1-n1c(=O)c2ccccc2c2ccccc2c1=O [Compound 31, N-(2-acetyl)-phenyldiphenimide] | 79 ± 7% |
| CC(=O)c1cccc(-n2c(=O)c3ccccc3c3ccccc3c2=O)c1 [Compound 32, N-(3-acetyl)-phenyldiphenimide] | 77 ± 8% |
| CC(=O)c1ccc(-n2c(=O)c3ccccc3c3ccccc3c2=O)cc1 [Compound 33, N-(4-acetyl)-diphenimide] | 80 ± 5% |

Same assay, conditions: Mus musculus, 384 h; 20 mg/kg/day ip, day 16, ± SD; read-out: Serum Cholesterol as a function of control, 16 Day

| Compound | response vs control in vivo at 20 mg/kg |
| --- | --- |
| O=c1c2ccccc2c2ccccc2c(=O)n1-c1ccccc1 [Compound 18, N-phenyldiphenimide] | 67 ± 6% |
| COc1ccccc1-n1c(=O)c2ccccc2c2ccccc2c1=O [Compound 19, N-(2-methoxy)-phenyldiphenimide] | 67 ± 5% |
| COc1cccc(-n2c(=O)c3ccccc3c3ccccc3c2=O)c1 [Compound 20, N-(3-methoxy)phenyldiphenimide] | 74 ± 7% |
| COc1ccc(-n2c(=O)c3ccccc3c3ccccc3c2=O)cc1 [Compound 21, N-(4-methoxy)-phenyldiphenimide] | 84 ± 8% |
| Cc1ccccc1-n1c(=O)c2ccccc2c2ccccc2c1=O [Compound 22, N-(2-methyl)-phenyldiphenimide] | 61 ± 6% |
| Cc1cccc(-n2c(=O)c3ccccc3c3ccccc3c2=O)c1 [Compound 23, N-(3-methyl)-phenyldiphenimide] | 76 ± 7% |
| Cc1ccc(-n2c(=O)c3ccccc3c3ccccc3c2=O)cc1 [Compound 24, N-(4-methyl)-phenyldiphenimide] | 52 ± 6% |
| CCc1ccccc1-n1c(=O)c2ccccc2c2ccccc2c1=O [Compound 25, N-(2-ethyl)phenyldiphenimide] | 73 ± 6% |
| CCc1cccc(-n2c(=O)c3ccccc3c3ccccc3c2=O)c1 [Compound 26, N-(3-ethyl)-phenyldiphenimide] | 77 ± 7% |
| CCc1ccc(-n2c(=O)c3ccccc3c3ccccc3c2=O)cc1 [Compound 27, N-(4-ethyl)-phenyldiphenimide] | 71 ± 5% |
| O=c1c2ccccc2c2ccccc2c(=O)n1-c1ccccc1Cl [Compound 28, N-(2-chloro)-phenyldiphenimide] | 64 ± 5% |
| O=c1c2ccccc2c2ccccc2c(=O)n1-c1cccc(Cl)c1 [Compound 29, N-(3-chloro)-phenyldiphenimide] | 78 ± 8% |
| O=c1c2ccccc2c2ccccc2c(=O)n1-c1ccc(Cl)cc1 [Compound 30, N-(4-chloro)phenyldiphenimide] | 67 ± 5% |
| CC(=O)c1ccccc1-n1c(=O)c2ccccc2c2ccccc2c1=O [Compound 31, N-(2-acetyl)-phenyldiphenimide] | 76 ± 6% |
| CC(=O)c1cccc(-n2c(=O)c3ccccc3c3ccccc3c2=O)c1 [Compound 32, N-(3-acetyl)-phenyldiphenimide] | 68 ± 6% |
| CC(=O)c1ccc(-n2c(=O)c3ccccc3c3ccccc3c2=O)cc1 [Compound 33, N-(4-acetyl)-diphenimide] | 73 ± 5% |

Test system: serum triglycerides
Assay: Hypolipidemic Activity of Compounds 1 and 10-33, Example 13: serum triglycerides
Assay type: in vivo, CF1 male mice
Settings: Mus musculus, 384 h; 20 mg/kg/day ip, day 16, ± SD; read-out: Serum Triglyceride as a function of control, 16 Day
Method: as §1

| Compound | response vs control in vivo at 20 mg/kg |
| --- | --- |
| O=c1c2ccccc2c2ccccc2c(=O)n1-c1ccccc1 [Compound 18, N-phenyldiphenimide] | 62 ± 6% |
| COc1ccccc1-n1c(=O)c2ccccc2c2ccccc2c1=O [Compound 19, N-(2-methoxy)-phenyldiphenimide] | 68 ± 5% |
| COc1cccc(-n2c(=O)c3ccccc3c3ccccc3c2=O)c1 [Compound 20, N-(3-methoxy)phenyldiphenimide] | 72 ± 8% |
| COc1ccc(-n2c(=O)c3ccccc3c3ccccc3c2=O)cc1 [Compound 21, N-(4-methoxy)-phenyldiphenimide] | 74 ± 6% |
| Cc1ccccc1-n1c(=O)c2ccccc2c2ccccc2c1=O [Compound 22, N-(2-methyl)-phenyldiphenimide] | 65 ± 6% |
| Cc1cccc(-n2c(=O)c3ccccc3c3ccccc3c2=O)c1 [Compound 23, N-(3-methyl)-phenyldiphenimide] | 63 ± 6% |
| Cc1ccc(-n2c(=O)c3ccccc3c3ccccc3c2=O)cc1 [Compound 24, N-(4-methyl)-phenyldiphenimide] | 60 ± 7% |
| CCc1ccccc1-n1c(=O)c2ccccc2c2ccccc2c1=O [Compound 25, N-(2-ethyl)phenyldiphenimide] | 84 ± 7% |
| CCc1cccc(-n2c(=O)c3ccccc3c3ccccc3c2=O)c1 [Compound 26, N-(3-ethyl)-phenyldiphenimide] | 66 ± 6% |
| CCc1ccc(-n2c(=O)c3ccccc3c3ccccc3c2=O)cc1 [Compound 27, N-(4-ethyl)-phenyldiphenimide] | 70 ± 7% |
| O=c1c2ccccc2c2ccccc2c(=O)n1-c1ccccc1Cl [Compound 28, N-(2-chloro)-phenyldiphenimide] | 65 ± 6% |
| O=c1c2ccccc2c2ccccc2c(=O)n1-c1cccc(Cl)c1 [Compound 29, N-(3-chloro)-phenyldiphenimide] | 87 ± 7% |
| O=c1c2ccccc2c2ccccc2c(=O)n1-c1ccc(Cl)cc1 [Compound 30, N-(4-chloro)phenyldiphenimide] | 64 ± 4% |
| CC(=O)c1ccccc1-n1c(=O)c2ccccc2c2ccccc2c1=O [Compound 31, N-(2-acetyl)-phenyldiphenimide] | 58 ± 6% |
| CC(=O)c1cccc(-n2c(=O)c3ccccc3c3ccccc3c2=O)c1 [Compound 32, N-(3-acetyl)-phenyldiphenimide] | 58 ± 4% |
| CC(=O)c1ccc(-n2c(=O)c3ccccc3c3ccccc3c2=O)cc1 [Compound 33, N-(4-acetyl)-diphenimide] | 70 ± 5% |
